From patent US12503461B2, “Pesticidally active heterocyclic derivatives with sulfur and sulfoximine containing substituents” (SYNGENTA CROP PROTECTION AG, priority 2019, dated 2025)

What was measured:
Assay type in all cases: in vivo
[1] = system: Diabrotica balteata (Corn Root Worm); assay: Example B1: Diabrotica balteata (corn root worm), sprayed maize sprouts on agar, L2 larvae; conditions: 96 h, application rate of 200 ppm, 4 days after infestation, in comparison to untreated samples, read-out: effect in at least one of the two categories (mortality or growth inhibition)
Experimental: Example B1: Diabrotica balteata (Corn Root Worm
Maize sprouts placed onto an agar layer in 24-well microtiter plates were treated with aqueous test solutions prepared from 10′000 ppm DMSO stock solutions by spraying. After drying, the plates were infested with L2 larvae (6 to 10 per well). The samples were assessed for mortality and growth inhibition in comparison to untreated samples 4 days after infestation.

[2] = system: Euschistus heros (Neotropical Brown Stink Bug); assay: Example B2: Euschistus heros (neotropical brown stink bug), sprayed soybean leaves, N2 nymphs; conditions: 120 h, application rate of 200 ppm, 5 days after infestation, in comparison to untreated samples, read-out: effect in at least one of the two categories (mortality or growth inhibition)
Experimental: Example B2: Euschistus heros (Neotropical Brown Stink Bug
Soybean leaves on agar in 24-well microtiter plates were sprayed with aqueous test solutions prepared from 10′000 ppm DMSO stock solutions. After drying the leaves were infested with N2 nymphs. The samples were assessed for mortality and growth inhibition in comparison to untreated samples 5 days after infestation.

[3] = system: Frankliniella occidentalis (Western Flower Thrips); assay: Example B3: Frankliniella occidentalis (western flower thrips), sprayed sunflower leaf discs; conditions: foliar, 168 h, application rate of 200 ppm, population of mixed ages, 7 days after infestation
Experimental: Example B3: Frankliniella occidentalis (Western Flower Thrips
Sunflower leaf discs were placed on agar in 24-well microtiter plates and sprayed with aqueous test solutions prepared from […] stock solutions. After drying the leaf discs were infested with a Frankliniella population of mixed ages. The samples were assessed for mortality 7 days after infestation.

[4] = system: Plutella xylostella (Diamond Back Moth); assay: Example B4: Plutella xylostella (diamond back moth), treated artificial diet, eggs; conditions: 192 h, application rate of 200 ppm, 8 days after infestation, in comparison to untreated samples, read-out: effect in at least one of the two categories (mortality or growth inhibition)
Experimental: Example B4: Plutella xylostella (Diamond Back Moth
24-well microtiter plates with artificial diet were treated with aqueous test solutions prepared from 10′000 ppm DMSO stock solutions by pipetting. After drying, Plutella eggs were pipetted through a plastic stencil onto a gel blotting paper and the plate was closed with it. The samples were assessed for mortality and growth inhibition in comparison to untreated samples 8 days after infestation.

[5] = system: Myzus persicae (Green Peach Aphid); assay: Example B5: Myzus persicae (green peach aphid), feeding/contact activity, sprayed sunflower leaf discs; conditions: foliar, 144 h, application rate of 200 ppm, aphid population of mixed ages, 6 days after infestation
Experimental: Example B5: Myzus persicae (Green Peach Aphid). Feeding/Contact Activity
Sunflower leaf discs were placed onto agar in a 24-well microtiter plate and sprayed with aqueous test solutions prepared from 10′000 ppm DMSO stock solutions. After drying, the leaf discs were infested with an aphid population of mixed ages. The samples were assessed for mortality 6 days after infestation.

[6] = system: Bemisia tabaci (Cotton White Fly); assay: Example B6: Bemisia tabaci (cotton white fly), feeding/contact activity, sprayed cotton leaf discs; conditions: foliar, 144 h, application rate of 200 ppm, adult white flies, 6 days after incubation
Experimental: Example B6: Bemisia tabaci (Cotton White Fly). Feeding/Contact Activity
Cotton leaf discs were placed on agar in 24-well microtiter plates and sprayed with aqueous test solutions prepared from 10′000 ppm DMSO stock solutions. After drying the leaf discs were infested with adult white flies. The samples were checked for mortality 6 days after incubation.

[7] = system: Spodoptera littoralis (Egyptian Cotton Leaf Worm); assay: Example B7: Spodoptera littoralis (Egyptian cotton leaf worm), sprayed cotton leaf discs, L1 larvae; conditions: foliar, 72 h, application rate of 200 ppm, 3 days after infestation, in comparison to untreated samples
In short: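 Cotton leaf discs on agar were sprayed with aqueous test solutions made from 10′000 ppm DMSO stocks, dried, and infested with five L1 larvae. Mortality, anti-feeding and growth inhibition were scored against untreated samples 3 days after infestation; control means any category exceeds the untreated sample.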

[8] = system: Myzus persicae (Green Peach Aphid); assay: Example B8: Myzus persicae (green peach aphid), systemic activity, pea seedling roots in test solution; conditions: 144 h, test rate of 24 ppm, aphid population of mixed ages, 6 days after placing seedlings into test solutions
Experimental: Example B8: Myzus persicae (Green Peach Aphid). Systemic Activity
Roots of pea seedlings infested with an aphid population of mixed ages were placed directly into aqueous test solutions prepared from 10′000 DMSO stock solutions. The samples were assessed for mortality 6 days after placing seedlings into test solutions.

CCS(=O)(=O)c1cc(N=S(C)(C)=O)cnc1-c1nc2cc(S(=N)(=O)C(F)(F)F)ccc2o1 (stereo not drawn) [P1, [2-[5-[[dimethyl(oxo)-λ^6-sulfanylidene]amino]-3-ethylsulfonyl-2-pyridyl]-1,3-benzoxazol-5-yl]-imino-oxo-(trifluoromethyl)-λ^6-sulfane]
≥ 80%: percent effect (mortality or growth inhibition) at 200 ppm [1] | effect (mortality or growth inhibition) at 200 ppm [2] | mortality at 200 ppm [3] | percent effect (mortality or growth inhibition) at 200 ppm [4] | mortality at 200 ppm [5] | mortality at 200 ppm [6] | percent control (mortality, anti-feeding effect or growth inhibition) at 200 ppm [7]

CCN=S(=O)(c1ccc2oc(-c3ncc(N=S(C)(C)=O)cc3S(=O)(=O)CC)nc2c1)C(F)(F)F (stereo not drawn) [P2, [2-[5-[[dimethyl(oxo)-λ^6-sulfanylidene]amino]-3-ethylsulfonyl-2-pyridyl]-1,3-benzoxazol-5-yl]-ethylimino-oxo-(trifluoromethyl)-λ^6-sulfane]
≥ 80%: percent effect (mortality or growth inhibition) at 200 ppm [1] | effect (mortality or growth inhibition) at 200 ppm [2] | mortality at 200 ppm [3] | percent effect (mortality or growth inhibition) at 200 ppm [4] | percent control (mortality, anti-feeding effect or growth inhibition) at 200 ppm [7]

CCS(=O)(=O)c1cc(C2(C#N)CC2)cnc1-c1nc2cc(S(=N)(=O)C(F)(F)F)ccc2o1 (stereo not drawn) [P7, 1-[5-ethylsulfonyl-6-[5-(trifluoromethylsulfonimidoyl)-1,3-benzoxazol-2-yl]-3-pyridyl]cyclopropanecarbonitrile]
≥ 80%: percent effect (mortality or growth inhibition) at 200 ppm [1] | effect (mortality or growth inhibition) at 200 ppm [2] | percent effect (mortality or growth inhibition) at 200 ppm [4] | mortality at 200 ppm [6] | percent control (mortality, anti-feeding effect or growth inhibition) at 200 ppm [7]

CCS(=O)(=O)c1cc(C2CC2)cnc1-c1nc2cc(S(=N)(=O)C(F)(F)F)ccc2o1 (stereo not drawn) [P12, [2-(5-cyclopropyl-3-ethylsulfonyl-2-pyridyl)-1,3-benzoxazol-5-yl]-imino-oxo-(trifluoromethyl)-λ^6-sulfane]
≥ 80%: percent effect (mortality or growth inhibition) at 200 ppm [1] | effect (mortality or growth inhibition) at 200 ppm [2] | mortality at 200 ppm [3] | percent effect (mortality or growth inhibition) at 200 ppm [4] | mortality at 200 ppm [5] | percent control (mortality, anti-feeding effect or growth inhibition) at 200 ppm [7]

CCS(=O)(=O)c1cccnc1-c1nc2cc(S(=O)(=NC(C)=O)C(F)(F)F)ccc2o1 (stereo not drawn) [P17, N-[[2-(3-ethylsulfonyl-2-pyridyl)-1,3-benzoxazol-5-yl]-oxo-(trifluoromethyl)-λ^6-sulfanylidene]acetamide]
≥ 80%: percent effect (mortality or growth inhibition) at 200 ppm [1] | effect (mortality or growth inhibition) at 200 ppm [2] | percent effect (mortality or growth inhibition) at 200 ppm [4] | mortality at 200 ppm [5] | mortality at 200 ppm [6] | percent control (mortality, anti-feeding effect or growth inhibition) at 200 ppm [7]

CCN=S(=O)(c1cnc2c(c1)nc(-c1ncc(C3(C#N)CC3)cc1S(=O)(=O)CC)n2C)C(F)(F)F (stereo not drawn) [P20, 1-[5-ethylsulfonyl-6-[6-[N-ethyl-S-(trifluoromethyl)sulfonimidoyl]-3-methyl-imidazo[4,5-b]pyridin-2-yl]-3-pyridyl]cyclopropanecarbonitrile]
≥ 80%: percent effect (mortality or growth inhibition) at 200 ppm [1] | effect (mortality or growth inhibition) at 200 ppm [2] | mortality at 200 ppm [3] | percent effect (mortality or growth inhibition) at 200 ppm [4] | mortality at 200 ppm [5] | percent control (mortality, anti-feeding effect or growth inhibition) at 200 ppm [7] | mortality at 24 ppm [8]

CCS(=O)(=O)c1cc(C2(C#N)CC2)cnc1-c1nc2cc(S(=N)(=O)C(F)(F)F)cnc2n1C (stereo not drawn) [P21, 1-[5-ethylsulfonyl-6-[3-methyl-6-(trifluoromethylsulfonimidoyl)imidazo[4,5-b]pyridin-2-yl]-3-pyridyl]cyclopropanecarbonitrile]
≥ 80%: percent effect (mortality or growth inhibition) at 200 ppm [1] | effect (mortality or growth inhibition) at 200 ppm [2] | mortality at 200 ppm [3] | percent effect (mortality or growth inhibition) at 200 ppm [4] | mortality at 200 ppm [5] | percent control (mortality, anti-feeding effect or growth inhibition) at 200 ppm [7] | mortality at 24 ppm [8]

CCS(=O)(=O)c1cc(OCC(C)(F)F)cnc1-c1nc2cc(S(=N)(=O)C(F)(F)F)ccc2o1 (stereo not drawn) [P26, [2-[5-(2,2-difluoropropoxy)-3-ethylsulfonyl-2-pyridyl]-1,3-benzoxazol-5-yl]-imino-oxo-(trifluoromethyl)-λ^6-sulfane]
≥ 80%: percent effect (mortality or growth inhibition) at 200 ppm [1] | effect (mortality or growth inhibition) at 200 ppm [2] | mortality at 200 ppm [3] | percent effect (mortality or growth inhibition) at 200 ppm [4] | mortality at 200 ppm [5] | percent control (mortality, anti-feeding effect or growth inhibition) at 200 ppm [7]

CCN=S(=O)(c1ccc2oc(-c3ncc(OCC(C)(F)F)cc3S(=O)(=O)CC)nc2c1)C(F)(F)F (stereo not drawn) [P27, [2-[5-(2,2-difluoropropoxy)-3-ethylsulfonyl-2-pyridyl]-1,3-benzoxazol-5-yl]-ethylimino-oxo-(trifluoromethyl)-λ^6-sulfane]
≥ 80%: percent effect (mortality or growth inhibition) at 200 ppm [1] | effect (mortality or growth inhibition) at 200 ppm [2] | mortality at 200 ppm [3] | percent effect (mortality or growth inhibition) at 200 ppm [4] | mortality at 200 ppm [5] | percent control (mortality, anti-feeding effect or growth inhibition) at 200 ppm [7]

CCN=S(=O)(c1ccc2c(c1)nc(-c1ncc(C3(C#N)CC3)cc1S(=O)(=O)CC)n2C)C(F)(F)F (stereo not drawn) [P32, 1-[5-ethylsulfonyl-6-[5-[N-ethyl-S-(trifluoromethyl)sulfonimidoyl]-1-methyl-benzimidazol-2-yl]-3-pyridyl]cyclopropanecarbonitrile]
≥ 80%: percent effect (mortality or growth inhibition) at 200 ppm [1] | effect (mortality or growth inhibition) at 200 ppm [2] | percent effect (mortality or growth inhibition) at 200 ppm [4] | percent control (mortality, anti-feeding effect or growth inhibition) at 200 ppm [7] | mortality at 24 ppm [8]

CCS(=O)(=O)c1cc(C2(C#N)CC2)cnc1-c1nc2cc(S(=N)(=O)C(F)(F)F)ccc2n1C (stereo not drawn) [P33, 1-[5-ethylsulfonyl-6-[1-methyl-5-(trifluoromethylsulfonimidoyl)benzimidazol-2-yl]-3-pyridyl]cyclopropanecarbonitrile]
≥ 80%: percent effect (mortality or growth inhibition) at 200 ppm [1] | effect (mortality or growth inhibition) at 200 ppm [2] | percent effect (mortality or growth inhibition) at 200 ppm [4] | mortality at 200 ppm [6] | percent control (mortality, anti-feeding effect or growth inhibition) at 200 ppm [7]

CCS(=O)(=O)c1cc(C2(C#N)CC2)cnc1-c1nc2cc(S(=O)(=NCC(F)(F)F)C(F)(F)F)ccc2n1C (stereo not drawn) [P34, 1-[5-ethylsulfonyl-6-[1-methyl-5-[N-(2,2,2-trifluoroethyl)-S-(trifluoromethyl)sulfonimidoyl]benzimidazol-2-yl]-3-pyridyl]cyclopropanecarbonitrile]
≥ 80%: percent effect (mortality or growth inhibition) at 200 ppm [1] | effect (mortality or growth inhibition) at 200 ppm [2] | percent effect (mortality or growth inhibition) at 200 ppm [4] | mortality at 200 ppm [6] | percent control (mortality, anti-feeding effect or growth inhibition) at 200 ppm [7]

CCS(=O)(=O)c1cc(-c2nccc(C(F)(F)F)n2)cnc1-c1nc2cc(S(=N)(=O)C(F)(F)F)ccc2o1 (stereo not drawn) [P40, [2-[3-ethylsulfonyl-5-[4-(trifluoromethyl)pyrimidin-2-yl]-2-pyridyl]-1,3-benzoxazol-5-yl]-imino-oxo-(trifluoromethyl)-λ^6-sulfane]
≥ 80%: percent effect (mortality or growth inhibition) at 200 ppm [1] | effect (mortality or growth inhibition) at 200 ppm [2] | mortality at 200 ppm [3] | percent effect (mortality or growth inhibition) at 200 ppm [4] | percent control (mortality, anti-feeding effect or growth inhibition) at 200 ppm [7]
